The test system of data set [1] is Diet-Induced Obesity Rat Model. Kind of data set: Weight loss experiments in diet-induced obesity rat model. It counts as in vivo. Particulars: for difference to control group E (weight loss effect): SPSS12.0 analysis, p<0.01, versus control group E on normal feed; for average weight variation (g) after / average weight variation (g) before: obese male rats; for average weight variation (g) before: n=10 per group. The source says:
Male weaned rats (each weighs 50 g) divided into 5 groups with each group 10 rats.
The rats are orally administrated L-carnitine tartrate (Group A), L-hydroxy citric acid (Group B), L-carnitine tartrate and L-hydroxy citric acid (Group C), L-carnitine tartrate and L-hydroxy citric acid and asiaticosides (Group D), respectively. For comparison, a control group E is also set herewith. The oral administration dosage is 5 times that for human (kg/day). The rats are fed with feed comprising one of the active components set forth above for continuous 30 days.
Feed preparation: the feed comprises (a) basic feed consisting of 20 wt % of barley meal, 10 wt % of dehydrated vegetables, 20 wt % of pulse flour, 1 wt % of yeast, 5 wt % of bone dust, 16 wt % of cornmeal, 16 wt % of wheat skin, 10 wt % of fish meal and 2 wt % of salt, and (b) nutritive feed selected from the group consisting of powdered milk, lard, egg and soybean sprout. 10 g of powdered milk, 10 g of lard, one egg and 250 g of soybean sprout are added per 100 g of basic feed.
In the first and second week, each rat is fed 13 g of feed per day, with an increase in the amount of the feed of 2 g every week until the sixth week ([…]). The rats are fed twice a day. After the rats are fed with the high-fat, high-nutrition feed above for 45 days, the weight of the rat fed with such feed is nearly two times that of the rat in the control group fed with normal feed (the difference may be more than 100 g).
After the establishment of the rat model, rats in different groups are orally administrated L-carnitine tartrate (Group A), L-hydroxy citric acid (Group B), L-carnitine tartrate and L-hydroxy citric acid (Group C), L-carnitine tartrate and L-hydroxy citric acid and asiaticosides (Group D). The components are blended in the feed. No additional component is added to the normal feed fed the control group.
The experiment data is analyzed by software SPSS12.0 edition, and the result are shown as below: […]

The conditions of data set [2]: cited from earlier work.
For data set [3] the following is noted: cited from earlier work. The source holds these as a separate data set.
The mark [4] stands for this setting: after minus before, 30 days oral administration in feed, dosage 5 times that for human.
The mark [5] stands for this setting: fat pad around testicle and kidney, after 30 days oral administration in feed, dosage 5 times that for human.
The mark [6] stands for this setting: fat pad around testicle and kidney, after minus before, 30 days oral administration in feed.
The mark [7] stands for this setting: fat pad around testicle and kidney, before the 30 days of oral administration in feed (baseline).
Setting [8] is: after 30 days oral administration in feed, dosage 5 times that for human.
[9] abbreviates: before the 30 days of oral administration in feed (baseline).

`C[N+](C)(C)C[C@H](O)CC(=O)[O-].O=C(O)C(O)C(O)C(=O)O` [Group A, L-carnitine tartrate]: in data set [1], the “difference to control group E (weight loss effect)” value is given as “significant”. Also, the “average weight variation (g) variation” value in data set [1] (setting [4]) is -5 g. In addition, the “average fat pad weight” value is 3.93 g in data set [1] (setting [5]), -2.3 g in data set [1] (setting [6]) and 6.23 g in data set [1] (setting [7]). The “average weight variation (g) after” value in data set [1] (setting [8]) turned out to be 98.28 g. The “average weight variation (g) before” value in data set [1] (setting [9]) amounted to 103.28 g.

For `C[N+](C)(C)C[C@H](O)CC(=O)[O-]` [L-carnitine], in data set [2], the in vivo half-life was 8.4 h. Moreover, the solubility in water entry in data set [3] was “easy to dissolve in water”.

Regarding `O=C(O)CC(O)(C(=O)O)C(O)C(=O)O` [Group B, L-hydroxy citric acid], the “difference to control group E (weight loss effect)” value in data set [1] is “significant”. Also, in data set [1] (setting [4]), the “average weight variation (g) variation” value was -5.8 g. In addition, the “average percentage body fat variation (g) after” value in data set [1] (setting [5]) was found to be 3.81 g. The “average percentage body fat variation (g) variation” value in data set [1] (setting [6]) is -2.4 g. The “average percentage body fat variation (g) before” value in data set [1] (setting [7]) is reported as 6.21 g. The “average weight variation (g) after” value in data set [1] (setting [8]) is 97.32 g. Also, in data set [1] (setting [9]), the “average weight variation (g) before” value was found to be 103.12 g.

The values are drawn from patent US20090169490A1, “COMPOSITION AND METHOD FOR WEIGHT LOSS” (Guangzhou Konzern Pharmaceutical Co., Ltd, priority 2007, published 2009).
